Values of other authors in PMC6311893, “Computational prediction of plasma protein binding of cyclic peptides from small molecule experimental data using sparse modeling techniques” (BMC Bioinformatics, 2018).

Test system: plasma protein
Conditions: fraction bound to plasma protein; small molecule dataset, sheet 1-SM (Set Dte = test, Dtr = training); ref Ingle et al.; cited from earlier work

| Compound | PPB (fb) |
| --- | --- |
| CCOC(=O)C(C)(C)Oc1ccc(Cl)cc1 [clofibrate] | 0.96 |
| Nc1ccc(S(=O)(=O)Nc2ccnn2-c2ccccc2)cc1 [sulfaphenazole] | 0.95 |
| CCN(CC)C(=O)Nc1ccc(OCC(O)CNC(C)(C)C)c(C(C)=O)c1 (stereo not shown) [celiprolol] | 0.25 |
| C=C1CC[C@H](O)C/C1=C/C=C1\CCC[C@]2(C)[C@@H]([C@H](C)CCCC(C)(C)O)CC[C@@H]12 [calcifediol] | 0.8 |
| NS(=O)(=O)c1cc(-c2nnn[nH]2)c(NCc2cccs2)cc1Cl [azosemide] | 0.96 |
| COc1cc2nc(N(C)CCCNC(=O)C3CCCO3)nc(N)c2cc1OC (stereo not shown) [alfuzosin] | 0.9 |
| COC(CC(=O)NC1C(=O)N2C1SC(C)(C)C2C(=O)O)c1ccc(Cl)s1 (stereo not shown) [penicillin75] | 0.84 |
| CN(C)c1nc(N(C)C)nc(N(C)C)n1 [altretamine] | 0.94 |
| CN[C@@H]1CCc2[nH]c3ccc(C(N)=O)cc3c2C1 [Frovatriptan] | 0.15 |
| N=C(N)NC(=O)c1nc(Cl)c(N)nc1N [amiloride] | 0.4 |
| O=C(O)c1cn(-c2cccc([N+](=O)[O-])c2)c2cc(N3CCNCC3)c(F)cc2c1=O [7b(m-NO2)] | 0.66 |
| COc1ccc(-n2cc(C(=O)O)c(=O)c3cc(F)c(N4CCNCC4)cc32)cc1 [5c(p-OCH3)] | 0.31 |
| Cc1cccc(C)c1NC(=O)C1CCCCN1C (stereo not shown) [Mepivacaine] | 0.77 |
| C[C@H](Cn1cnc2c(N)ncnc21)OCP(=O)(O)O [Tenofovir] | 0.07 |
| CN1CCC(=C2c3ccccc3CCc3sccc32)CC1 [pizotyline] | 0.91 |
| CCOc1nc2cccc(C(=O)O)c2n1Cc1ccc(-c2ccccc2-c2nnn[nH]2)cc1 [candesartan] | 0.99 |

Same assay, conditions: fraction bound to plasma protein; small molecule dataset, sheet 1-SM, Set Dtr; ref Ingle et al.; cited from earlier work

| Compound | PPB (fb) |
| --- | --- |
| Cc1cccc(C)c1NC(=O)NCCCNC(C)C [Recainam] | 0.14 |
| Cc1nc2c([nH]1)-c1ccccc1N(C(=O)c1ccc(NC(=O)c3ccccc3-c3ccccc3)cc1)CC2 [Conivaptan] | 0.99 |
| Cc1onc(-c2ccccc2)c1C(=O)N[C@@H]1C(=O)N2[C@@H]1SC(C)(C)[C@@H]2C(=O)O [Oxacillin] | 0.92 |
| COc1cc(OC)c(C(=O)CCCN2CCCC2)c(OC)c1 [Buflomedil] | 0.6 |
| C[C@H]1C[C@H]2[C@@H]3CCC4=CC(=O)C=C[C@]4(C)[C@@]3(F)[C@@H](O)C[C@]2(C)[C@@]1(O)C(=O)CO [Betamethasone] | 0.66 |
| NC[C@H]1CC[C@H](C(=O)O)CC1 [tranexamic acid] | 0.03 |
| CN1C2CCCC1CC(NC(=O)c1nn(C)c3ccccc13)C2 (stereo not shown) [Granisetron] | 0.65 |
| CN[C@@H]1[C@@H](O)[C@@H](O[C@@H]2[C@@H](O)[C@H](O[C@H]3O[C@H](CN)[C@@H](O)[C@H](O)[C@H]3O)[C@@H](N)C[C@H]2NC(=O)[C@@H](O)CN)OC[C@]1(C)O [Isepamicin] | 0.05 |
| Nc1ccc(O)c(C(=O)O)c1 [Aminosalicylic acid__ 5-] | 0.61 |
| O=c1[nH]cc(F)c(=O)[nH]1 [Fluorouracil] | 0.23 |
| O=C1CCc2ccc(OCCCCN3CCN(c4cccc(Cl)c4Cl)CC3)cc2N1 [Aripiprazole] | 0.99 |
| CC1CCCC(C)N1CCCC(O)(c1ccccc1)c1ccccn1 (stereo not shown) [Pirmenol] | 0.87 |
| C[C@@H](CN1CC(=O)NC(=O)C1)N1CC(=O)NC(=O)C1 [Dexrazoxane] | 0.01 |
| COc1nc(N)nc2c1ncn2[C@@H]1O[C@H](CO)[C@@H](O)[C@@H]1O [Nelarabine] | 0.2 |
| CCn1cc(C(=O)O)c(=O)c2cc(F)c(N3CCNCC3)nc21 [Enoxacin] | 0.26 |
| CN(C)/N=N/c1[nH]cnc1C(N)=O [Dacarbazine] | 0.02 |

Same assay, conditions: fraction bound to plasma protein; small molecule dataset, sheet 1-SM; ref Ingle et al.; cited from earlier work

| Compound | PPB (fb) |
| --- | --- |
| C#C[C@]1(O)CC[C@H]2[C@@H]3CCC4=CCCC[C@@H]4[C@H]3CC[C@@]21C [lynestrenol] | 0.96 |
| CC[C@@H]1C(=O)OC[C@@H]1Cc1cncn1C [Pilocarpine] | 0.01 |
| CN(CCCN1c2ccccc2CCc2ccccc21)CC(=O)c1ccc(Cl)cc1 [lofepramine] | 0.99 |
| CO[C@]12C[C@@H](COC(=O)c3cncc(Br)c3)CN(C)[C@@H]1Cc1cn(C)c3cccc2c13 [nicergoline] | 0.95 |
| Cc1ccccc1OCC(O)CNCCOc1ccc(C(N)=O)cc1 (stereo not shown) [Tolamolol] | 0.91 |
| CC(=O)NC(CS)C(=O)O (stereo not shown) [n-acetylcysteine] | 0.83 |
| CC(C(=O)NCCCN1CCCC1)c1ccc(OS(=O)(=O)C(F)(F)F)cc1 (stereo not shown) [JMC_05] | 0.62 |
| CCCOC(C(=O)OC1CCN(C)CC1)(c1ccccc1)c1ccccc1 [propiverine] | 0.9 |
| OCCN1CCN(CCCN2c3ccccc3C=Cc3ccccc32)CC1 [opipramol] | 0.9 |
| CC(Oc1cccc(F)c1)C(=O)NC1C(=O)N2C1SC(C)(C)C2C(=O)O (stereo not shown) [penicillin61] | 0.84 |
| CC1(C)SC2C(NC(=O)C(N)c3ccc(Cl)cc3)C(=O)N2C1C(=O)O (stereo not shown) [penicillin28] | 0.55 |
| CCCC(CC)C(CCC)C(=O)NC1C(=O)N2C1SC(C)(C)C2C(=O)O (stereo not shown) [penicillin4] | 0.93 |
| C[C@]12CCC(=O)C=C1[C@@H]1C[C@@H]1[C@H]1[C@@H]3[C@@H]4C[C@@H]4[C@@]4(CCC(=O)O4)[C@@]3(C)CC[C@@H]12 [drospirenone] | 0.97 |
| OCCN1CCN(CCC=C2c3ccccc3Sc3ccc(C(F)(F)F)cc32)CC1 [flupenthixol] | 0.95 |
| CC(CC(c1ccccc1)c1ccccc1)NC(C)(C)C (stereo not shown) [Terodiline] | 0.88 |
| CN(CCOc1ccc(CC2SC(=O)NC2=O)cc1)c1ccccn1 (stereo not shown) [Rosiglitazone] | 0.99 |
| CCOC(=O)c1c(N)sc2c1CCN(Cc1ccccc1)C2 [Tinoridine] | 0.92 |
| CC1(C)SC2C(NC(=O)C(Cl)c3ccccc3)C(=O)N2C1C(=O)O (stereo not shown) [penicillin22] | 0.78 |
| NS(=O)(=O)c1cc2c(cc1C(F)(F)F)NCNS2(=O)=O [hydroflumethiazide] | 0.75 |
| CC(COc1ccccc1)NC(C)C(O)c1ccc(O)cc1 (stereo not shown) [isoxsuprine] | 0 |
| O=C1NC(=O)C(c2ccccc2)(c2ccccc2)N1 [phenytoin] | 0.91 |

Same assay, conditions: plasma; cited from earlier work

| Compound | PPB (fb) |
| --- | --- |
| COc1cc(CC2c3c(cc(OC)c(OC)c3OC)CC[N+]2(C)CCCOC(=O)CCC(=O)OCCC[N+]2(C)CCc3cc(OC)c(OC)c(OC)c3C2Cc2cc(OC)c(OC)c(OC)c2)cc(OC)c1OC (stereo not shown) [Doxacurium] | 0.39 |
| CC(C)CC(N(C)C)C1(c2ccc(Cl)cc2)CCC1 (stereo not shown) [sibutramine] | 0.95 |
| O=C1Nc2ccc(Cl)cc2C(c2ccccc2Cl)=NC1O (stereo not shown) [Lorazepam] | 0.91 |
| trichloroethanol | 0.35 |
| nafarelin | 0.8 |
| CCN(C(C)=O)c1cccc(-c2ccnc3c(C#N)cnn23)c1 [Zaleplon] | 0.6 |
| polythiazide | 0.85 |
| CN1CC[C@]23c4c5ccc(OCCN6CCOCC6)c4O[C@H]2[C@@H](O)C=C[C@H]3[C@H]1C5 [pholcodine] | 0.24 |
| methacycline | 0.84 |
| O=P1(N(CCCl)CCCl)NCCCO1 (stereo not shown) [Cyclophosphamide] | 0.15 |
| COc1ccc2c3c1O[C@H]1C(=O)CC[C@@]4(O)[C@@H](C2)N(C)CC[C@]314 [Oxycodone] | 0.45 |
